# Entries after “also recorded” stand apart in the source; their conditions may differ.
# Tests used:
# [1] = Anti-glycation (L-arginine and glucose); type: biochemical; conditions: for inhibition rate: 70 °C, 4 h, 420 nm
# [2] = test system: B-16 mouse melanoma cell (쥐의 멜라노마 세포); assay: Total melanin increase in B-16 mouse melanoma cells (darkening effect); type: cell-based; conditions: for melanin production: absorbance at 400 nm per 1×10^6 cells
# [3] = biological target: T1, elastase derived from human leukocytes (사람의 백혈구 세포로부터 유래한 엘라스테이즈) (Homo sapiens, UniProt P08246); assay: Elastase activity inhibition (MeOSuc-Ala-Ala-Pro-Val-pNA substrate); type: biochemical; conditions: for elastase activity inhibition (in words): compared with quercetin; for enzyme activity: slope of absorbance at 405 nm
# T1 construct: 사람의 백혈구 세포로부터 유래한 엘라스테이즈를 사용하였고; from tissue; host or cells: human leukocytes
# T1 sequence (P08246 30-267): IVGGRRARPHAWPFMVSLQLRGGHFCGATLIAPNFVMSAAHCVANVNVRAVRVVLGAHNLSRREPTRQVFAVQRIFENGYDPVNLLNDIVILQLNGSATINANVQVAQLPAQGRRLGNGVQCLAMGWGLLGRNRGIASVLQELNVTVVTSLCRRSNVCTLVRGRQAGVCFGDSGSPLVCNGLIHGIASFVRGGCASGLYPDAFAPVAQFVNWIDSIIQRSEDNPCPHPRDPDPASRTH
# [4] = test system: human-derived fibroblasts, type I collagen (인간 유래 섬유아세포, 제1형 콜라겐); assay: Type I collagen synthesis promotion in human-derived fibroblasts (PICP EIA kit); type: cell-based
# [5] = 10 ppm, room temperature, 20 min, n = 3, read-out: inhibition rate
smiles,measurement,setting,value
"N=C(N)NN [Aminoguanidine, reference compound]",inhibition rate,"[1]; aminoguanidine positive control, 55 ppm",54.89%
"C=C[C@@]1(C)CC(=O)[C@]2(O)[C@@]3(C)[C@@H](O)CCC(C)(C)[C@@H]3[C@H](O)[C@H](OC(C)=O)[C@@]2(C)O1 [Forskolin, reference compound]",melanin production,"[2]; 10 ppm, 3 days",0.792 abs
same,activation at 10 ppm,"[2]; Mus musculus, 72 h, 10 ppm, 3 days, relative to control, read-out: increase rate (total melanin)",140%
"O=c1c(O)c(-c2ccc(O)c(O)c2)oc2cc(O)cc(O)c12 [Quercetin, reference compound]",inhibition at 10 ppm,[3]; [5],69.2%
"O=C1O[C@H]([C@@H](O)CO)C(O)=C1O [비타민C, reference compound]",activation at 52.85 ppm,"[4]; Homo sapiens, Fibroblast, vitamin C positive control, 52.85 ppm, 48 h, relative to negative control, n = 4, read-out: increase rate (type I collagen production)",64.3%
same,type I collagen production,"[4]; vitamin C positive control, 52.85 ppm, 48 h, n = 4",246.8 ng/mL
"C[C@@]12CC[C@@H]3[C@@](CC[C@H]4[C@@]3(C)CCC[C@@]4(C)C(=O)O)(CC1=O)C2 [화학식 1의 화합물, (4α,8β,13β)-13-Methyl-16-oxo-17-norkauran-18-oic acid]",inhibition rate,[1]; 25 ppm,51.12%
same,inhibition rate,[1]; 50 ppm,69.22%
same,anti-glycation effect (in words),[1]; compared with aminoguanidine,항당화 효과가 더욱 뛰어남
same,elastase activity inhibition (in words),[3]; 10 ppm,엘라스테이즈 활성 저해 효과가 양성대조군인 퀘르세틴에 상응하는 정도로 높게 나타났으며
same,inhibition at 10 ppm,[3]; [5],55.8%
same,enzyme activity,"[3]; 10 ppm, room temperature, 20 min, n = 3",4.6
same,elastase activity inhibition (in words),[3]; 20 ppm,퀘르세틴보다 우수한 엘라스테이즈 활성 저해 효과가 나타나
same,inhibition at 20 ppm,"[3]; 20 ppm, room temperature, 20 min, n = 3, read-out: inhibition rate",69.2%
same,enzyme activity,"[3]; 20 ppm, room temperature, 20 min, n = 3",3.2
same,collagen synthesis effect (in words),"[4]; 1 and 10 ppm, compared with vitamin C",농도 의존적으로 콜라겐 합성량이 증가되었고; also recorded: 비타민C를 적용한 경우보다 더 낮은 농도에서 유사한 콜라겐 합성 효과를 나타내었다
same,type I collagen production,"[4]; 1 ppm, 48 h, n = 4",187.6 ng/mL
same,type I collagen production,"[4]; 10 ppm, 48 h, n = 4",265.5 ng/mL
same,activation at 1 ppm,"[4]; Homo sapiens, Fibroblast, 1 ppm, 48 h, relative to negative control, n = 4, read-out: increase rate (type I collagen production)",24.9%
same,activation at 10 ppm,"[4]; Homo sapiens, Fibroblast, 10 ppm, 48 h, relative to negative control, n = 4, read-out: increase rate (type I collagen production)",76.8%
same,melanin production,"[2]; 1 ppm, 3 days",0.662 abs
same,total melanin increase effect (in words),"[2]; 10 ppm, compared with forskolin",10 ppm에서도 상당히 우수한 멜라닌 총량 증가 효과
same,melanin production,"[2]; 20 ppm as printed in table, 3 days",0.831 abs
same,activation at 1 ppm,"[2]; Mus musculus, 72 h, 1 ppm, 3 days, relative to control, read-out: increase rate (total melanin)",101%
same,activation at 20 ppm,"[2]; Mus musculus, 72 h, 20 ppm as printed in table, 3 days, relative to control, read-out: increase rate (total melanin)",152%
